Tests used:
[1] = test system: HTTQ94 Tet-on HT-22 cells; test: Cell death assay, HTTQ94 Tet-on HT-22 cells treated with erastin; type: cell-based, mouse; conditions: doxycycline 0.5 μg/ml 4 h, then Erastin 1 μM 12 h; Ferr-1 2 μM, ROSI 10 μM, TRO 10 μM
Procedure: (B) HTTQ94 Tet-on HT-22 cells were pre-incubated with doxycycline (0.5 μg/ml) for 4 h, and then treated with Erastin (1 μM) for 12 h with/without Ferr-1 (2 μM). […] (E) Cell death assay. Control, HTTQ94 and HTTQ19 fragment Tet-on H1299 cells pre-incubated with doxycycline (0.5 μg/ml) for 16 h were treated with Erastin (30 μM) for 48 h with/without Ferr-1 (2 μM). Cell death were calculated from three replicates; Data shown in (B) and (E) are the means±SD. P-values were derived from two-tailed unpaired t-test. (***) P≤0.001, (**) P≤0.01, (*) P≤0.05, (n.s.) P >0.05.
(A) Cell death assay. HTTQ94 Tet-on HT-22 cells pre-incubated with doxycycline (0.5 μg/ml) for 4 h were treated with Erastin (1 μM) for 12 h in the presence or absence of ferrostatin-1 (Ferr-1, 2 μM) or ACSL4 inhibitors (rosiglitazone, ROSI, 10 μM; troglitazone, TRO, 10 μM). (B) Cell death assay. […] Cell death were calculated from three replicates. […]
Cells were treated with ferroptosis inducer TBH or erastin or glutamate combined with other drugs or conditions. […] Living cells and dead cells were all counted, and cells stained blue were considered as dead cells. Quantification of cell death was further confirmed using ToxiLight Non-destructive Cytotoxicity BioAssay Kit (LT07-117; Lonza). Data were collected using GloMax® Explorer Multimode Microplate Reader (Promega).

[2] = test system: HTTQ94 Tet-on HT-22 cells; test: Cell death assay, HTTQ94 Tet-on HT-22 cells treated with glutamate; type: cell-based, mouse; conditions: doxycycline 0.5 μg/ml and glutamate 10 mM, 20 h; for effect of inhibitor on HTTQ94-mediated ferroptosis upon glutamate induction: Ferr-1 2 μM, Zileuton 10 μM
Procedure: (G) Cell death assay in HTTQ94 Tet-on HT-22 cells. Cells were transfected with control siRNA (ctrl) or ALOX5 siRNA, followed by incubation with doxycycline (0.5 μg/ml) and glutamate (10 mM) for 16 h in the presence or absence of Ferr-1 (2 μM). Cell death were calculated from three replicates; Data shown in (A), (C), (E) and (G) are means±SD. P-values were derived from two-tailed unpaired t-test.
(E) Cell death assay. The HTTQ94 Tet-on HT-22 cells were treated with doxycycline (0.5 μg/ml) and glutamate (10 mM) in the presence or absence of Ferr-1(2 μM) or Zileuton (10 μM) for 20 h. […] Data shown in (B), (C), (D) and (E) are are means±SD. P-values were derived from two-tailed unpaired t-test.
Cells were plated at 20˜30% density one day prior to siRNAs transfection.
Cells were treated with ferroptosis inducer TBH or erastin or glutamate combined with other drugs or conditions. At indicated time points, cells were trypsinized and stained with trypan blue followed by counting with a hemocytometer using the cell number counter (Life technologies countess II). Living cells and dead cells were all counted, and cells stained blue were considered as dead cells.

[3] = test system: HTTQ94 Tet-on HT-22 cells; test: Cell death assay, HTTQ94 Tet-on HT-22 cells under ROS stress (TBH); type: cell-based, mouse; conditions: for effect of inhibitor on HTTQ94-mediated cell death upon ROS stress: then TBH 10 μM 8 h, Ferr-1 2 μM, Lipro-1 2 μM, DFO 100 μM, zVAD 10 μM, 3 MA 2 mM, Nec1 10 μM, Zileuton 10 μM, MK886 10 μM
Procedure: (A) Representative phase-contrast images of cell death from the HTTQ94 tet-on HT-22 cells. HTTQ94 Tet-on HT-22 cells were pre-incubated with doxycycline (0.5 μg/ml) for 4 h, and then treated with TBH (10 μM) for 8 h in the presence or absence of the ferroptosis inhibitors (ferrostatin-1, Ferr1, 2 μM; liproxstatin-1, Lipor1, 2 μM and DFO, 100 μM), apoptosis inhibitor (Z-VADFMK, zVAD, 10 μM), autophagy inhibitor (3-methylademine, 3 MA, 2 mM) or necroptosis inhibitor (necrostatin-1, Nec1, 10 μM). (B) Quantification of cell death, related to panel A. Three replicates for each group. […] Cell death were calculated from three replicates; Data shown in (B), (C), and (E) are means±SD. P-values were derived from two-tailed unpaired t-test. (***) P≤0.001, (**) P≤0.01, (*) P≤0.05, (n.s.) P >0.05.

[4] = test system: cellular models of Huntington's disease (HD); conditions: Skouta et al. 2014; cited from earlier work
[5] = test system: HT-22 HTTQ94 inducible cells; test: TfR1 immunofluorescence staining of ferroptotic cells; type: cell-based, mouse; conditions: doxycycline 1 μg/ml O/N
Procedure: FIGS. 13A-D. TfR1 staining is able to specifically recognize ferroptotic cells induced by HTTQ94 expression. (A) Limb clasping analysis in HD and HD/Alox5null mice (9-, 11- and 13-week-old). p<0.01, n=7. (B-D), TfR1 staining in HT-22 HTTQ94 inducible cells upon TBH treatment. HT-22 HTTQ94 inducible cells were treated 1 μg/ml doxycycline O/N to induce HTTQ94 expression, followed by treatment with 30 μM TBH for 6 h, and then cells were stained with TfR1 antibody. (B) Representative images of TfR1 staining. (C) Quantification of TfR1 staining. (D) Cell death assay, related to panel B. Data shown in (A) are means±SD. Data shown in (C) and (D) are means±SEM. P-values were derived from two-tailed unpaired t-test. (***) P<0.001, (**) P≤0.01, (*) P<0.05, (n.s.) P >0.05.
For cell line: HT-22 HTTQ94 inducible cells were fixed with 2% paraformaldehyde at RT for 20 min, and then incubated with blocking buffer (10% donkey serum, 0.3% Triton X-100 in PBS), followed by incubation with TfR1 antibody (1: 250, Thermo Fisher Scientific, Cat #13-6800) for 1 h, and then incubation with Alexa 568 conjugated secondary antibody (1:250, Thermo Fisher Scientific, Cat #A11004) for additional 1 h.

[6] = test system: mHTT-mediated ferroptosis; test: mHTT-mediated ferroptosis (summary statement); type: cell-based; conditions: general statement

## CCOC(=O)c1ccc(NC2CCCCC2)c(N)c1 [ferrostatin-1]
[1]
  effect of inhibitor on HTTQ94-mediated cell death (ferroptosis) upon erastin: completely inhibited
[2]
  effect of inhibitor on HTTQ94-mediated ferroptosis upon glutamate induction: inhibited
[3]; doxycycline 0.5 μg/ml 4 h
  effect of inhibitor on HTTQ94-mediated cell death upon ROS stress: specifically blocked
[4]
  rescue of cell death: significantly rescued
[5]; then TBH 30 μM 6 h, with Ferr-1
  effect of inhibitor on levels of anti-TfR1 antibody staining: abolished

## Clc1cccc(CN=C2Nc3ccccc3NC23CCNCC3)c1 [Lipro-1, liproxstatin-1]
[3]; doxycycline 0.5 μg/ml 4 h
  effect of inhibitor on HTTQ94-mediated cell death upon ROS stress: specifically blocked

## CC(C)(C)OO [TBH, tert-butyl hydroperoxide]
[3]; TBH 10 μM 8 h, no HTTQ94 induction
  cell death induced by inducer alone: failed to induce any cell death
[3]; doxycycline 0.5 μg/ml 4 h, TBH 10 μM 8 h
  cell death induced by inducer combined with HTTQ94 expression: high levels of cell death
[5]; TBH 30 μM 6 h
  levels of anti-TfR1 antibody staining cells with inducer upon HTTQ94 induction: dramatically increased

## CC(=O)N(O)CCCCCNC(=O)CCC(=O)N(O)CCCCCNC(=O)CCC(=O)N(O)CCCCCN [DFO]
[3]; doxycycline 0.5 μg/ml 4 h
  effect of inhibitor on HTTQ94-mediated cell death upon ROS stress: specifically blocked

## CC(c1cc2ccccc2s1)N(O)C(N)=O (racemic) [Zileuton, (±)-1 (1-Benzo[b]thien-2-ylethyl)-1-hydroxyurea]
[2]
  effect of inhibitor on HTTQ94-mediated ferroptosis upon glutamate induction: completely blocked
[6]
  block of mHTT-mediated ferroptosis: effectively blocked

## N[C@@H](CCC(=O)O)C(=O)O [glutamate]
[2]
  cell death induced by inducer upon HTTQ94 expression: high levels of cell death

— patent US20240299347A1, “METHODS AND COMPOSITIONS TO TREAT HUNTINGTON'S DISEASE BY TARGETING ALOX5- MEDIATED FERROPTOSIS” (The Trustees of Columbia University in the City of New York, priority 2023, published 2024)
